Source: US12391692B2, “Spiro ring-containing quinazoline compound” (WIGEN BIOMEDICINE TECHNOLOGY (SHANGHAI) CO., LTD., priority 2020, dated 2025)

Columns and labels:
H358 cells = test: Antiproliferative activity against H358 cells (Cell Titer Glow, ultra-low attachment plate); format: cell-based; conditions: Homo sapiens, NCI-H358, 72 h, three days after addition of compound
Procedure: 2500 H358 cells were seeded in a 96-well ultra-low attachment plate (corning, 7007). After one day of growth, a serially diluted compound (a maximum concentration of 5 μM, 5-fold dilution, a total of five doses) was added. Three days after the addition of the compound, Cell Titer Glow (Promega, G9681) was added to evaluate pellet growth, and the IC50 value was calculated.

pERK level in H358 cells = test: pERK and ERK protein content assay in H358 cells (ELISA); format: cell-based; conditions: Homo sapiens, NCI-H358, pERK/ERK ratio vs DMSO group, compound 1 μM, 24 h, read-out: Inhibition rate (%)
Procedure, shortened: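 Percent inhibition of pERK relative to DMSO, from the ELISA pERK/ERK ratio in lysed H358 cells. Compound applied at 1 μM for 24 h after one day of growth.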

Row | Structure (SMILES) | IC50 (H358 cells) [nM] | inhibition at 1 µM (pERK level in H358 cells) [%]
1 | C=CC(=O)N1CC2(CCN(c3nc(O[C@H]4C[C@@H](N5CCC5)C4)nc4c(OCC(F)(F)F)c(-c5c(C)ccc6[nH]ncc56)c(C5CC5)cc34)CC2)C1 [Compound 87] | < 300 | > 90
2 | C=CC(=O)N1CC2(CCN(c3nc(O[C@H]4C[C@H](N5CCC5)C4)nc4c(OCC(F)(F)F)c(-c5c(C)ccc6[nH]ncc56)c(C5CC5)cc34)CC2)C1 [Compound 88] | 300 to 1000 | 50 to 90
3 | C=CC(=O)N1CC2(CCN(c3nc(O[C@H]4C[C@@H](N5CCCC5)C4)nc4c(OCC(F)(F)F)c(-c5c(C)ccc6[nH]ncc56)c(C5CC5)cc34)CC2)C1 [Compound 89] | < 300 | > 90
4 | C=CC(=O)N1CC2(CCN(c3nc(O[C@H]4C[C@H](N5CCCC5)C4)nc4c(OCC(F)(F)F)c(-c5c(C)ccc6[nH]ncc56)c(C5CC5)cc34)CC2)C1 [Compound 90] | 300 to 1000 | 50 to 90
5 | C=CC(=O)N1CC2(CCN(c3nc(O[C@H]4C[C@@H](N5CCC(F)(F)C5)C4)nc4c(OCC(F)(F)F)c(-c5c(C)ccc6[nH]ncc56)c(C5CC5)cc34)CC2)C1 [Compound 91] | < 300 | > 90
6 | C=CC(=O)N1CC2(CCN(c3nc(O[C@H]4C[C@H](N5CCC(F)(F)C5)C4)nc4c(OCC(F)(F)F)c(-c5c(C)ccc6[nH]ncc56)c(C5CC5)cc34)CC2)C1 [Compound 92] | > 1000 | 50 to 90
7 | C=CC(=O)N1CC2(CCN(c3nc(O[C@H]4C[C@@H](N5CC6(CC6)C5)C4)nc4c(OCC(F)(F)F)c(-c5c(C)ccc6[nH]ncc56)c(C5CC5)cc34)CC2)C1 [Compound 93] | < 300 | > 90
8 | C=CC(=O)N1CC2(CCN(c3nc(O[C@H]4C[C@H](N5CC6(CC6)C5)C4)nc4c(OCC(F)(F)F)c(-c5c(C)ccc6[nH]ncc56)c(C5CC5)cc34)CC2)C1 [Compound 94] | 300 to 1000 | 50 to 90
9 | C=CC(=O)N1CC2(CCN(c3nc(O[C@H]4C[C@@H](N5CC6(CCC6)C5)C4)nc4c(OCC(F)(F)F)c(-c5c(C)ccc6[nH]ncc56)c(C5CC5)cc34)CC2)C1 [Compound 95] | < 300 | > 90
10 | C=CC(=O)N1CC2(CCN(c3nc(O[C@H]4C[C@H](N5CC6(CCC6)C5)C4)nc4c(OCC(F)(F)F)c(-c5c(C)ccc6[nH]ncc56)c(C5CC5)cc34)CC2)C1 [Compound 96] | 300 to 1000 | > 90
11 | C=CC(=O)N1CC2(CCN(c3nc(N4CC(N5CC6(CC6)C5)C4)nc4c(OCC)c(-c5c(C)ccc6[nH]ncc56)c(C5CC5)cc34)CC2)C1 [Compound 97] | < 300 | > 90
12 | C=CC(=O)N1CC2(CCN(c3nc(N4CC(N5CC6(CC6)C5)C4)nc4c(OCC(F)F)c(-c5c(C)ccc6[nH]ncc56)c(C5CC5)cc34)CC2)C1 [Compound 98] | < 300 | > 90
13 | C=CC(=O)N1CC2(CCN(c3nc(N4CC(N5CC6(CC6)C5)C4)nc4c(O[C@@H](C)C(F)(F)F)c(-c5c(C)ccc6[nH]ncc56)c(C5CC5)cc34)CC2)C1 [Compound 99] | < 300 | > 90
14 | C=CC(=O)N1CC2(CCN(c3nc(N4CC(N5CC6(CC6)C5)C4)nc4c(OCC(F)(F)F)c(-c5c(C)ccc6[nH]ncc56)c(C=C)cc34)CC2)C1 [Compound 100] | < 300 | > 90
15 | C=CC(=O)N1CC2(C1)CN(c1nc(N3CC(N4CC5(CC5)C4)C3)nc3c(OCC(F)(F)F)c(-c4c(C)ccc5[nH]ncc45)c(C4CC4)cc13)C2 [Compound 101] | < 300 | > 90
16 | C=CC(=O)N1CCC2(CC1)CN(c1nc(N3CC(N4CC5(CC5)C4)C3)nc3c(OCC(F)(F)F)c(-c4c(C)ccc5[nH]ncc45)c(C4CC4)cc13)C2 [Compound 102] | < 300 | > 90
17 | C=CC(=O)N1CC2(CCN(c3nc(N4CC(N5CC6(CC6)C5)C4)nc4c(OCC(F)(F)F)c(-c5c(C)c(F)cc6[nH]ncc56)c(C5CC5)cc34)CC2)C1 [Compound 104] | < 300 | > 90
18 | C=CC(=O)N1CC2(CCN(c3nc(N4CC(N5CC6(CC6)C5)C4)nc4c(OCC(F)(F)F)c(-c5c(C)c(C)cc6[nH]ncc56)c(C5CC5)cc34)CC2)C1 [Compound 105] | < 300 | > 90
19 | C=CC(=O)N1CC2(CCN(c3nc(N4CC(N5CC6(CC6)C5)C4)nc4c(OCC(F)(F)F)c(-c5c(C)ccc6[nH]nc(C)c56)c(C5CC5)cc34)CC2)C1 [Compound 106] | < 300 | > 90

Row | Structure (SMILES) | IC50 (H358 cells) [nM] | inhibition at 1 µM (pERK level in H358 cells) [%]
20 | C=CC(=O)N1CC2(CCN(c3nc(N4CC(N5CC6(CC6)C5)C4)nc4c(OCC(F)(F)F)c(-c5c(C)ccc6[nH]cnc56)c(C5CC5)cc34)CC2)C1 [Compound 107] | < 300 | > 90
21 | C=CC(=O)N1CC2(CCN(c3nc(N4CC(N5CC6(CC6)C5)C4)nc4c(OCC(F)(F)F)c(-c5c(F)ccc6[nH]cnc56)c(C5CC5)cc34)CC2)C1 [Compound 108] | < 300 | > 90
22 | C=CC(=O)N1CC2(CCN(c3nc(N4CC(N5CC6(CC6)C5)C4)nc4c(OCC(F)(F)F)c(-c5c(C)ccc6cn[nH]c56)c(C5CC5)cc34)CC2)C1 [Compound 109] | < 300 | > 90
23 | C=CC(=O)N1CC2(CCN(c3nc(N4CC(N5CC6(CC6)C5)C4)nc4c(OCC(F)(F)F)c(-c5c(F)ccc6cn[nH]c56)c(C5CC5)cc34)CC2)C1 [Compound 110] | < 300 | > 90
24 | C=CC(=O)N1CC2(CCN(c3nc(N4CC(N5CC6(CC6)C5)C4)nc4c(OCC(F)(F)F)c(-c5cc(O)cc6ccccc56)c(C5CC5)cc34)CC2)C1 [Compound 111] | 300 to 1000 | > 90
25 | C=CC(=O)N1CC2(CCN(c3nc(N4CC(N5CC6(CC6)C5)C4)nc4c(OCC(F)(F)F)c(-c5c(O)cccc5F)c(C5CC5)cc34)CC2)C1 [Compound 112] | < 300 | > 90
26 | C=CC(=O)N1CC2(CCN(c3nc(N4CC(N5CC6(CC6)C5)C4)nc4c(OCC(F)(F)F)c(-c5c(F)cccc5F)c(C5CC5)cc34)CC2)C1 [Compound 113] | 300 to 1000 | 50 to 90
27 | C=CC(=O)N1CC2(CCN(c3nc(N4CC(N5CCC6(CC6)C5)C4)nc4c(OCC(F)(F)F)c(-c5c(C)ccc6[nH]ncc56)c(CC)cc34)CC2)C1 [Compound 114] | < 300 | > 90
28 | C=CC(=O)N1CCC2(CC1)CN(c1nc(N3CC(N4CCC5(CC5)C4)C3)nc3c(OCC(F)(F)F)c(-c4c(C)ccc5[nH]ncc45)c(C4CC4)cc13)C2 [Compound 115] | < 300 | > 90
29 | C=CC(=O)N1CC2(CCN(c3nc(N4CC5(CCCN5CC)C4)nc4c(OCC(F)(F)F)c(-c5c(C)ccc6[nH]ncc56)c(C5CC5)cc34)CC2)C1 [Compound 116] | < 300 | > 90
30 | C=CC(=O)N1CC2(CCN(c3nc(N4CC5(CCCN5C(C)C)C4)nc4c(OCC(F)(F)F)c(-c5c(C)ccc6[nH]ncc56)c(C5CC5)cc34)CC2)C1 [Compound 117] | < 300 | > 90
31 | C=CC(=O)N1CC2(CCN(c3nc(N4CC5(CCCN5CCF)C4)nc4c(OCC(F)(F)F)c(-c5c(C)ccc6[nH]ncc56)c(C5CC5)cc34)CC2)C1 [Compound 118] | < 300 | > 90
32 | C=CCN1CCCC12CN(c1nc(N3CCC4(CC3)CN(C(=O)C=C)C4)c3cc(C4CC4)c(-c4c(C)ccc5[nH]ncc45)c(OCC(F)(F)F)c3n1)C2 [Compound 119] | < 300 | > 90
33 | C=CC(=O)N1CC2(CCN(c3nc(N4CC5(CCCN5C5CC5)C4)nc4c(OCC(F)(F)F)c(-c5c(C)ccc6[nH]ncc56)c(C5CC5)cc34)CC2)C1 [Compound 120] | < 300 | > 90
34 | C=CC(=O)N1CC2(CCN(c3nc(N4CC5(CC(O)CN5C)C4)nc4c(OCC(F)(F)F)c(-c5c(C)ccc6[nH]ncc56)c(C5CC5)cc34)CC2)C1 (centres unmarked) [Compound 121] | < 300 | > 90
35 | C=CC(=O)N1CC2(CCN(c3nc(N4CC5(CC(O)CN5CC)C4)nc4c(OCC(F)(F)F)c(-c5c(C)ccc6[nH]ncc56)c(C5CC5)cc34)CC2)C1 (centres unmarked) [Compound 122] | < 300 | > 90
36 | C=CC(=O)N1CC2(CCN(c3nc(N4CC5(CC(OC)CN5C)C4)nc4c(OCC(F)(F)F)c(-c5c(C)ccc6[nH]ncc56)c(C5CC5)cc34)CC2)C1 (centres unmarked) [Compound 123] | < 300 | > 90
37 | C=CC(=O)N1CC2(CCN(c3nc(N4CC5(CC(OC)CN5CC)C4)nc4c(OCC(F)(F)F)c(-c5c(C)ccc6[nH]ncc56)c(C5CC5)cc34)CC2)C1 (centres unmarked) [Compound 124] | < 300 | > 90
